From patent US20250214986A1, “P2X3 INHIBITOR COMPOUND, SALT THEREOF, POLYMORPH THEREOF AND USE THEREOF” (HUMANWELL HEATHCARE (GROUP) CO., LTD., priority 2022, published 2025)

Assays:
[1] = Pharmacokinetic assay in mice; assay type: in vivo, male ICR mice; details: male, ICR, mouse, plasma, mice, oral intragastric administration, 10 mg/kg
Protocol: Pharmacokinetic assay in mice was performed, wherein the mice used were male ICR mice weighing 20-25 g and fasted overnight. 3 mice were taken and given the compound by oral intragastric administration at 10 mg/kg, and blood was collected before administration and at 15 min, 30 min, 1 h, 2 h, 4 h, 8 h, and 24 h after administration. The blood samples were centrifuged at 6800 g at 2-8° C. for 6 min, and plasma was collected and stored at −80° C. […] The mixture was vortexed for 1 min and then centrifuged at 13000 rpm at 4° C. for 10 min. The supernatant was taken, and 3 times its amount of water was added for mixing. A proper amount of the resulting mixture was taken for LC-MS/MS analysis. The major pharmacokinetic parameters were analyzed using a non-compartmental model in the WinNonlin 7.0 software.

[2] = test system: citric acid/histamine-stimulated cough model; assay: Cough efficacy assay of histamine/citric acid in guinea pigs; assay type: in vivo; details: histamine/citric acid nebulization, intranasal instillation
Protocol: (§1) Before enrollment, the animals were acclimatized for 3-7 days. Once their body weight reached the standard (300-400 g), they were numbered and randomly grouped. 0.25-24 h before the start of the cough assessment, the compound or excipient was administered to the guinea pigs via intranasal instillation. The dose range for the administration of the test substance was 0.17-1.5 mg/kg. During the cough assessment, after the animals were acclimated in a whole-body plethysmography box, they were given histamine nebulization, followed by citric acid nebulization. The number of coughs and the cough latency of the animals were recorded within 22 min from the start of the histamine nebulization until the end of the observation period. For the statistics of experimental data, the one-way ANOVA method was used to analyze and compare the data of the groups. Statistical analysis results with p<0.05 were considered to indicate significant differences. Pairwise comparisons were performed using the t-test method to assess differences.

[3] = test system: citric acid/ATP-stimulated cough model; assay: Cough efficacy assay of ATP/citric acid in guinea pigs; assay type: in vivo; details: ATP/citric acid nebulization, intranasal instillation
Protocol: as §1, with “ATP” for “histamine”, “and after a few minutes, they were given” for “followed by”, “15” for “22”, “citric acid nebulization. The” for “histamine nebulization until the end of the observation period. For the statistics of experimental data, the”

[4] = Competitive suspension tests of free base crystalline forms A/B; assay type: physicochemical
Protocol: In order to confirm the thermodynamic transformation relationship between the anhydrous free base crystalline forms A and B under different temperature conditions, competitive suspension tests in n-heptane and toluene at room temperature and 50° C. were set up.

Row | AUC(0-t) [1] | Cmax [1] | Tmax [1] | half-life ([1]; read-out: T½ (converted)) | Resulting crystalline form after competitive suspension ([4]; Toluene, 50° C., 2 d) | Resulting crystalline form after competitive suspension ([4]; Toluene, RT, 5 d) | Resulting crystalline form after competitive suspension ([4]; n-Heptane, 50° C., 2 d) | Resulting crystalline form after competitive suspension ([4]; n-Heptane, RT, 42 d) | Compound | Cough inhibition rate vs. vehicle (%) [2] | Mean number of coughs within 15 min [2] | Cough inhibition rate vs. vehicle (%) [3] | Mean number of coughs within 15 min [3]
1 | 5200 ng·h/mL | 1250 ng/mL | 0.5 h | 2.41 h | – | – | – | – | Cc1cnc(-c2cc(O[C@@H]3CCOC3)cc(C(=O)N[C@H](C)c3cnc(C(F)(F)F)nc3)c2)s1 [Control compound 1, reference compound] | 57.1% | 11.4 | 59.1% | 8.1
2 | – | – | – | – | Free base crystalline form A | Free base crystalline form A | Free base crystalline form A | Free base crystalline form A | Cc1cnc(-c2cc(O[C@@H](C)[C@@H](C)O)cc(C(=O)N[C@H](C)c3cnc(C(F)(F)F)nc3)c2F)s1 [Free base crystalline forms A + B] | – | – | – | –
